The data set concerns the target ATP-dependent translocase ABCB1 (Homo sapiens, UniProt P08183). In words: TP_TRANSPORTER: transepithelial transport in Caco-2 cells. It is filed as functional, cell-based. On the technique in general: Passage across Caco-2 layers is used to estimate intestinal permeability.
ATP-dependent translocase ABCB1, sequence (P08183 whole entry): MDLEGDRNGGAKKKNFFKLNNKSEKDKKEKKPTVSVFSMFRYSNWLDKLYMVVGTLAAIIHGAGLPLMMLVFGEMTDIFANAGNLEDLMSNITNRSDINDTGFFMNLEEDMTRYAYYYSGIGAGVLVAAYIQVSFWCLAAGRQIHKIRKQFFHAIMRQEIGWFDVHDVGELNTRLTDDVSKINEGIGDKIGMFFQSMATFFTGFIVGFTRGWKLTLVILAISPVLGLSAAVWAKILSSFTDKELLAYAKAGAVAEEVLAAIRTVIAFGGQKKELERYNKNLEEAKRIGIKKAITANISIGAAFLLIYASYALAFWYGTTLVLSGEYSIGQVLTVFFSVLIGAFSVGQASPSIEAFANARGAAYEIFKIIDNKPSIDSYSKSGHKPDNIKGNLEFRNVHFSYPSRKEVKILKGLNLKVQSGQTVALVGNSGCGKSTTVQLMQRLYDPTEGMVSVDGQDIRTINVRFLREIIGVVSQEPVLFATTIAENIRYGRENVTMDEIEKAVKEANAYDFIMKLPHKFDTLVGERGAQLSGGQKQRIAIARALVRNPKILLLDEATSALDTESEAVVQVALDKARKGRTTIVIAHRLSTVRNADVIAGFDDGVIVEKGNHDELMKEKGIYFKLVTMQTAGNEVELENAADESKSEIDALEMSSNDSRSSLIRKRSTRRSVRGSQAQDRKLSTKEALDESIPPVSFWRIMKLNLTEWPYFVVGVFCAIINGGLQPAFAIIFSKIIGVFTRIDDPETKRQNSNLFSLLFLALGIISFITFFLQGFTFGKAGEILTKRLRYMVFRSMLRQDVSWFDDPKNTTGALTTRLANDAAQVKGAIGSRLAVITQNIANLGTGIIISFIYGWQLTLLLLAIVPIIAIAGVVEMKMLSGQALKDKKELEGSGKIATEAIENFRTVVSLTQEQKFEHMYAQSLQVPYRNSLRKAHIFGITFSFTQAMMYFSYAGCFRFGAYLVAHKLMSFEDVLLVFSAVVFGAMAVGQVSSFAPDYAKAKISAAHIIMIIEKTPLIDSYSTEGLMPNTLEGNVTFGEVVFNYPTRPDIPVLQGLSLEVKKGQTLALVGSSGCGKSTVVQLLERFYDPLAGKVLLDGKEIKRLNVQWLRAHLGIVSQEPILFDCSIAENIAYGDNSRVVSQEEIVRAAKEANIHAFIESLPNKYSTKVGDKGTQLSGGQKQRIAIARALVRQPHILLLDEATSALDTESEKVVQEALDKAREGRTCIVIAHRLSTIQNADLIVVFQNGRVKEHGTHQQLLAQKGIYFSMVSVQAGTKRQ
Regarding `CC(=O)Oc1ccccc1C(=O)O` [ASPIRIN], the Activity entry is “is not a substrate [-]”. For the molecule `CC(C)Cc1ccc(C(C)C(=O)O)cc1` (configuration not stated) [IBUPROFEN], the Activity entry was “is not a substrate [-]”. The value for `CNC(=C[N+](=O)[O-])NCCSCc1ccc(CN(C)C)o1` [RANITIDINE] was “is not a substrate [-]”; that for `Cc1nc2n(c(=O)c1CCN1CCC(c3noc4cc(F)ccc34)CC1)CCCC2` [RISPERIDONE] was “substrate [+]”. Next, `COc1cc2cc(C3=NNC(=O)CC3C)sc2cc1OC` (configuration not stated): “is not a substrate [-]”.

For the molecule `CC1(C)CC(=O)N(CCCCN2CCN(c3ncccn3)CC2)C(=O)C1O.Cl` (configuration not stated), the Activity result was “substrate [+]”. The value for PEG 4000 was “is not a substrate [-]”.

Take `O=C(O)/C=C/C(=O)O.O=C1CCCN1CCCCN1CCN(c2cc(C(F)(F)F)ccn2)CC1`: the Activity entry was “substrate [+]”.

For the molecule `Cl.FC(F)(F)c1ccc(N2CCNCC2)nc1Cl`, the Activity entry was “substrate [+]”. As for `CC1(C)CC(=O)N(CCCCN2CCN(c3ncccn3)CC2)C(=O)C1.Cl` [GEPIRONE HYDROCHLORIDE], the Activity entry was “substrate [+]”.

For `Cc1cc(=O)n(-c2ccccc2)n1C` [ANTIPYRINE], the Activity entry is “is not a substrate [-]”. Next, `Clc1cccc(Cl)c1N=C1NCCN1` [CLONIDINE]: “substrate [+]”. In the case of `CC(=O)Nc1ccc(O)cc1` [ACETAMINOPHEN], the Activity entry was “is not a substrate [-]”.

Regarding `CS(=O)(=O)O.O=C(CCCN1CCC(=C(c2ccc(F)cc2)c2ccc(F)cc2)CC1)N1CCCC1`, the Activity result is “substrate [+]”.

Take `CN(C)CCC=C1c2ccccc2CCc2ccccc21` [AMITRIPTYLINE]: the Activity result was “substrate [+]”.

Regarding `OC[C@@H](O)[C@@H](O)[C@H](O)[C@H](O)CO` [MANNITOL], the Activity entry is “is not a substrate [-]”.

Regarding `CN1CCC(=C(c2ccc(F)cc2)c2cc(Cl)cs2)CC1`, the Activity result was “substrate [+]”. Next, `NC(=O)N1c2ccccc2C=Cc2ccccc21` [CARBAMAZEPINE]: “is not a substrate [-]”; `CN1CC2c3ccccc3Oc3ccc(Cl)cc3C2C1.O=C(O)/C=C\C(=O)O` (racemic) [ASENAPINE MALEATE]: “substrate [+]”; `O=C(O)c1ccccc1O` [SALICYLIC ACID]: “is not a substrate [-]”. As to `C=CCC(N)c1ccccc1-c1noc2ccccc12.Cl` (single isomer, unassigned; (-)), the Activity entry is “substrate [+]”. Next, `COc1ccc2c(c1)c(CC(=O)O)c(C)n2C(=O)c1ccc(Cl)cc1` [INDOMETHACIN]: “is not a substrate [-]”.
